The results in this text go back to patent US20240101584A1, “TARGETED DELIVERY OF 1,2,4,5 TETRAOXANE COMPOUNDS AND THEIR USES” (Westlake University, priority 2021, published 2024).

For one assay, the system named is NIH3T3 cells. Kind of assay: MTT viability assay, non-cancerous NIH3T3 cells. The class given is cell-based. The settings on record: Mus musculus, NIH3T3. How it is done:
(§1) The anticancer activities of the exemplary compounds listed in Example 1 were tested against human cervix Hela cells, mammary breast cancer MDA-MB-231 cells, human hepatocellular HepG2 cells, human colorectal HCT116 cells, mammary ductal T47D cells, non-cancerous NIH3T3 cells, dog's kidney MDCK cells, and mouse brain bEnd.3 cells, respectively.

A further assay has as its system Hela cells. Briefly: MTT viability assay, Hela cells. The class given is cell-based, human. The settings on record: Homo sapiens, HeLa, 48 h incubation, mean, n = 3, read-out: IC50 against Hela cells. How it is done:
as §1
For orientation: Formazan colour is commonly taken as a measure of viable cells.

Another assay has as its system MDCK cells. Kind of assay: MTT viability assay, MDCK cells. The settings on record: Canis lupus familiaris, MDCK, 48 h incubation, mean, n = 3, read-out: IC50 against MDCK cells. The class given is cell-based, dog. The protocol:
as §1

The next assay deals with MDA-MB-231 cells. Briefly: MTT viability assay, MDA-MB-231 cells. The settings on record: for IC50: Homo sapiens. The assay is classed as cell-based. The protocol:
as §1

In the next assay the test system is T47D cells. Briefly: MTT viability assay, T47D cells. The class given is cell-based. The settings on record: for IC50: Homo sapiens, T47D, MTT, n = 3. How it is done:
as §1

Another assay has as its system HCT116 cells. Briefly: MTT viability assay, HCT116 cells. The class given is cell-based, human. The settings on record: for IC50: Homo sapiens, HCT-116. The protocol:
as §1

Where [1] appears, read: MTT, 48 h incubation, mean, n = 3, read-out: IC50 against NIH3T3 cells.
Setting [2] is: MDA-MB-231, 48 h, MTT, 48 h incubation, mean, n = 3, read-out: IC50 against MDA-MB-231 cells.
[3] abbreviates: 48 h incubation, mean, read-out: IC50 against T47D cells.
Where [4] appears, read: MTT, 48 h incubation, mean, n = 3, read-out: IC50 against HCT116 cells.
Where [5] appears, read: Table 12b, read-out: IC50 NIH3T3.
[6] abbreviates: Table 12b, read-out: IC50 HCT116.
Setting [7] is: MDA-MB-231, Table 12b, read-out: IC50 MDA-MB-231.

Read-outs that look alike come from different tables or passages of the source. A value given as a limit tells only on which side of the number the result lay.

Turning to `CC(C)(C)C1CCC2(CC1)OOC1(CCC(OC(=O)NCCCN(Cc3ccccc3)Cc3ccccc3)CC1)OO2` (stereo not drawn) [Compound 37d, 12-(tert-butyl)-7,8,15,16-tetraoxadispiro[5.2.59.26]hexadecan-3-yl(3-(dibenzylamino)propyl)carbamate], the IC50 (in general, the midpoint of a concentration-inhibition curve) is 30.3 µM in the assay on NIH3T3 cells (setting [1]); 24.8 µM in the assay on Hela cells; over 100 µM with MDCK cells; 31.7 µM with MDA-MB-231 cells (setting [2]); 10.4 µM in the assay on T47D cells (setting [3]).

Consider `CN(CCCNC(=O)OC1CCC2(CC1)OOC1(CCC(C(C)(C)C)CC1)OO2)Cc1ccccc1` (stereo not drawn) [Compound 37e, 12-(tert-butyl)-7,8,15,16-tetraoxadispiro[5.2.59.26]hexadecan-3-yl(3-(benzyl(methyl)amino)propyl)carbamate], for which the 50% inhibitory concentration (IC50) amounted to 1.9 µM in the assay with NIH3T3 cells (setting [1]); 1.7 µM in the assay on Hela cells; 19.3 µM with MDCK cells; 1.7 µM with MDA-MB-231 cells (setting [2]); 1.2 µM in the assay on T47D cells (setting [3]).

Take `CC(=O)OC[C@H]1O[C@@H](OCCCCNC(=O)OC2CCC3(CC2)OOC2(CCC(C(C)(C)C)CC2)OO3)[C@H](OC(C)=O)[C@@H](OC(C)=O)[C@@H]1OC(C)=O` (stereo partly drawn) [Compound 37h, (2R,3R,4S,5R,6R)-2-(acetoxymethyl)-6-(4-((((12-(tert-butyl)-7,8,15,16-tetraoxadispiro[5.2.59.26]hexadecan-3-yl)oxy)carbonyl)amino)butoxy)tetrahydro-2H-pyran-3,4,5-triyl triacetate]: the IC50 in the assay with NIH3T3 cells (Table 13, experimental data, MTT, 48 hrs, n = 3, read-out: IC50 NIH3T3) turned out to be 4.6 ± 1.9 µM; in the assay with HCT116 cells (Table 13, experimental data, MTT, 48 hrs, n = 3, read-out: IC50 HCT116), 0.6 ± 0.3 µM; with MDA-MB-231 cells (MDA-MB-231, 48 h, Table 13, experimental data, MTT, 48 hrs, n = 3, read-out: IC50 MDA-MB-231), 0.4 ± 0.05 µM; in the assay on T47D cells (Table 13, experimental data, 48 hrs, read-out: IC50 T47D) it was 0.6 ± 0.1 µM. In addition, the “selectivity index (IC50 of NIH3T3 divided by IC50 on HCT116)” value in the assay on HCT116 cells (Table 13, value in bracket) was “(>7)”. Moreover, the “selectivity index (IC50 of NIH3T3 divided by IC50 on MDA-MB-231)” value with MDA-MB-231 cells (Table 13, value in bracket) is listed as “(>11)”. Further, in the assay on T47D cells (Table 13, value in bracket), the “selectivity index (IC50 of NIH3T3 divided by IC50 on T47D)” value is on record as “(>7)”.

In the case of `CC(C)(C)C1CCC2(CC1)OOC1(CCC(OC(=O)NCCC[N+](C)(C)C)CC1)OO2` (stereo not drawn) [Compound 49, 3-((((12-(tert-butyl)-7,8,15,16-tetraoxadispiro[5.2.59.26]hexadecan-3-yl)oxy)carbonyl)amino)-N,N,N-trimethylpropan-1-aminium iodide], the IC50 was over 50 µM in the assay on NIH3T3 cells (setting [1]), over 50 µM in the assay with HCT116 cells (setting [4]) and 31.5 µM in the assay on MDA-MB-231 cells (setting [2]).

As to `C[n+]1ccc(CNC(=O)OC2CCC3(CC2)OOC2(CCC(C(C)(C)C)CC2)OO3)cc1` (stereo not drawn) [Compound 50, 4-(((((12-(tert-butyl)-7,8,15,16-tetraoxadispiro[5.2.59.26]hexadecan-3-yl)oxy)carbonyl)amino)methyl)-1-methylpyridin-1-ium iodide], the IC50 was 44.9 µM in the assay on NIH3T3 cells (setting [1]), over 25 µM with HCT116 cells (setting [4]) and 19.2 µM in the assay on MDA-MB-231 cells (setting [2]).

In the case of `CC(C)(C)C1CCC2(CC1)OOC1(CCC(OC(=O)N3CC[N+](C)(C)CC3)CC1)OO2` (stereo not drawn) [Compound 51, 4-(((12-(tert-butyl)-7,8,15,16-tetraoxadispiro[5.2.59.26]hexadecan-3-yl)oxy)carbonyl)-1,1-dimethylpiperazin-1-ium iodide], the IC50 with NIH3T3 cells (setting [1]) is over 25 µM; in the assay on HCT116 cells (setting [4]) it was over 50 µM; in the assay with MDA-MB-231 cells (setting [2]), 26.1 µM.

Consider `CCCC[N+](C)(CCCC)CCCNC(=O)OC1CCC2(CC1)OOC1(CCC(C(C)(C)C)CC1)OO2.[I-]` (stereo not drawn) [Compound 53, N-butyl-N-(3-((((12-(tert-butyl)-7,8,15,16-tetraoxadispiro[5.2.59.26]hexadecan-3-yl)oxy)carbonyl)amino)propyl)-N-methylbutan-1-aminium iodide], for which the IC50 in the assay with NIH3T3 cells (setting [1]) was 33.7 µM; in the assay on NIH3T3 cells (setting [5]) it was 33.7 ± 3.4 µM; with HCT116 cells (setting [4]), 6.7 µM; in the assay on HCT116 cells (setting [6]) it was 6.7 ± 1.4 µM; in the assay with MDA-MB-231 cells (setting [2]) it was under 4 µM; with MDA-MB-231 cells (setting [7]) it was 3.7 ± 0.4 µM. Also, the “selectivity index (IC50 of NIH3T3 divided by IC50 on HCT116)” value in the assay on HCT116 cells (Table 12b, value in bracket) is recorded as “(>5)”. The “selectivity index (IC50 of NIH3T3 divided by IC50 on MDA-MB-231)” value in the assay on MDA-MB-231 cells (Table 12b, value in bracket) is reported as “(>9.1)”.

For `CC(C)(C)C1CCC2(CC1)OOC1(CCC(OC(=O)NCCC[N+](C)(C)Cc3ccccc3)CC1)OO2` (stereo not drawn) [Compound 54, N-benzyl-3-((((12-(tert-butyl)-7,8,15,16-tetraoxadispiro[5.2.59.26]hexadecan-3-yl)oxy)carbonyl)amino)-N,N-dimethylpropan-1-aminium iodide], the IC50 in the assay with NIH3T3 cells (setting [1]) is over 50 µM; in the assay with HCT116 cells (setting [4]), 26.2 µM; with MDA-MB-231 cells (setting [2]) it was 14.7 µM.

`CCCC[P+](CCCC)(CCCC)CCCNC(=O)OC1CCC2(CC1)OOC1(CCC(C(C)(C)C)CC1)OO2.[Br-]` (stereo not drawn) [Compound 56, tributyl(3-((((12-(tert-butyl)-7,8,15,16-tetraoxadispiro[5.2.59.26]hexadecan-3-yl)oxy)carbonyl)amino)propyl)phosphonium bromide]: the IC50 with NIH3T3 cells (setting [1]) was determined as 11.1 µM; in the assay on NIH3T3 cells (setting [5]) it was 11.1 ± 0.6 µM; in the assay on HCT116 cells (setting [4]), 2.7 µM; in the assay with HCT116 cells (setting [6]), 2.7 ± 0.3 µM; with MDA-MB-231 cells (setting [7]), 0.97 ± 0.1 µM. The “selectivity index (IC50 of NIH3T3 divided by IC50 on HCT116)” value in the assay on HCT116 cells (Table 12b, value in bracket) is given as “(>4.1)”. The “selectivity index (IC50 of NIH3T3 divided by IC50 on MDA-MB-231)” value in the assay on MDA-MB-231 cells (Table 12b, value in bracket) is “(>11.4)”.

In the case of `CC(C)(C)C1CCC2(CC1)OOC1(CCC(OC(=O)NCCC[N+](Cc3ccccc3)(Cc3ccccc3)Cc3ccccc3)CC1)OO2` (stereo not drawn) [Compound 57, N,N,N-tribenzyl-3-((((12-(tert-butyl)-7,8,15,16-tetraoxadispiro[5.2.59.26]hexadecan-3-yl)oxy)carbonyl)amino)propan-1-aminium iodide], the IC50 with NIH3T3 cells (setting [1]) was 9.8 µM; in the assay on MDA-MB-231 cells (setting [2]), 2.9 µM.

As for `OC1CCC2(CC1)OOC1(CCCCC1)OO2` [Compound 59, 7,8,15,16-tetraoxadispiro[5.2.59.26]hexadecan-3-ol], in the assay on MDA-MB-231 cells (setting [2]), the IC50 is over 50 µM.

For `C[N+](CCCNC(=O)OC1CCC2(CC1)OOC1(CCCCC1)OO2)(Cc1ccccc1)Cc1ccccc1` [Compound 59a, 3-((((7,8,15,16-tetraoxadispiro[5.2.59.26]hexadecan-3-yl)oxy)carbonyl)amino)-N,N-dibenzyl-N-methylpropan-1-aminium iodide], the IC50 in the assay with MDA-MB-231 cells (setting [2]) amounted to 10.4 µM.

For `O=C(NCCC[P+](c1ccccc1)(c1ccccc1)c1ccccc1)OC1CCC2(CC1)OOC1(CCCCC1)OO2` [Compound 59b, (3-((((7,8,15,16-tetraoxadispiro[5.2.59.26]hexadecan-3-yl)oxy)carbonyl)amino)propyl)triphenylphosphonium bromide], in the assay on MDA-MB-231 cells (setting [2]), the IC50 is 1.9 µM.

For `C#CCCNC(=O)OCC(C)(C)C1CCC2(CC1)OOC1(CCC(O)CC1)OO2` [Compound alk-L-37, 2-(12-hydroxy-7,8,15,16-tetraoxadispiro[5.2.59.26]hexadecan-3-yl)-2-methylpropyl but-3-yn-1-ylcarbamate], the IC50 with MDA-MB-231 cells (setting [2]) amounted to 24.5 µM.

As to `C#CCCNC(=O)OCC(C)(C)C1CCC2(CC1)OOC1(CCC(OC(=O)NCCC[P+](c3ccccc3)(c3ccccc3)c3ccccc3)CC1)OO2` [Compound alk-L-37b, (3-((((12-(1-((but-3-yn-1-ylcarbamoyl)oxy)-2-methylpropan-2-yl)-7,8,15,16-tetraoxadispiro[5.2.59.26]hexadecan-3-yl)oxy)carbonyl)amino)propyl)triphenylphosphonium bromide], the IC50 in the assay with NIH3T3 cells (setting [1]) was 12.9 µM; in the assay with MDA-MB-231 cells (setting [2]), 2.1 µM.

As to `C#CCCNC(=O)OCC(C)(C)C1CCC2(CC1)OOC1(CCC(OC(=O)NCCC[N+](C)(Cc3ccccc3)Cc3ccccc3)CC1)OO2` [Compound alk-L-48, N,N-dibenzyl-3-((((12-(1-((but-3-yn-1-ylcarbamoyl)oxy)-2-methylpropan-2-yl)-7,8,15,16-tetraoxadispiro[5.2.59.26]hexadecan-3-yl)oxy)carbonyl)amino)-N-methylpro pan-1-aminium iodide], the figures for the IC50 in the assay with NIH3T3 cells (setting [1]) and in the assay on MDA-MB-231 cells (setting [2]) were 18.2 µM and 8.8 µM, respectively.

For the compound `C#CCCN(CCC[P+](c1ccccc1)(c1ccccc1)c1ccccc1)C(=O)OC1CCC2(CC1)OOC1(CCC(C(C)(C)C)CC1)OO2` (stereo not drawn) [Compound alk-R-37b, (3-(but-3-yn-1-yl(((12-(tert-butyl)-7,8,15,16-tetraoxadispiro[5.2.59.26]hexadecan-3-yl)oxy)carbonyl)amino)propyl)triphenylphosphonium bromide], the IC50 turned out to be 9.7 µM in the assay with NIH3T3 cells (setting [1]) and 2.3 µM in the assay with MDA-MB-231 cells (setting [2]).

On to `C#CCCN(CCC[N+](C)(Cc1ccccc1)Cc1ccccc1)C(=O)OC1CCC2(CC1)OOC1(CCC(C(C)(C)C)CC1)OO2.[I-]` (stereo not drawn) [Compound alk-R-48, N,N-dibenzyl-3-(but-3-yn-1-yl(((12-(tert-butyl)-7,8,15,16-tetraoxadispiro[5.2.59.26]hexadecan-3-yl)oxy)carbonyl)amino)-N-methylpropan-1-aminium iodide], for which the IC50 with NIH3T3 cells (setting [1]) was 10.8 µM; in the assay with NIH3T3 cells (setting [5]) it was 10.8 ± 3.7 µM; with MDA-MB-231 cells (setting [7]) it was 0.8 ± 0.2 µM. In addition, the “selectivity index (IC50 of NIH3T3 divided by IC50 on MDA-MB-231)” value in the assay on MDA-MB-231 cells (Table 12b, value in bracket) is reported as “(>13)”.
